Columns and labels:
A549 = experiment: cells; conditions: Homo sapiens, A549, 72 h
Description: Antiproliferative activity against human A549 cells after 72 hrs by MTT assay

HCT-116 = experiment: cells; conditions: Homo sapiens, HCT-116, 72 h
Description: Antiproliferative activity against human HCT116 cells after 72 hrs by MTT assay

HepG2 = experiment: cells; conditions: Homo sapiens, HepG2, 72 h
[1] = molecular target: Histone-lysine N-methyltransferase EZH2 (Homo sapiens) (UniProt Q15910); experiment: Inhibition of EZH2 (unknown origin) at 10 uM relative to control
Chain of Histone-lysine N-methyltransferase EZH2 (Homo sapiens) (Q15910 whole entry, looked up): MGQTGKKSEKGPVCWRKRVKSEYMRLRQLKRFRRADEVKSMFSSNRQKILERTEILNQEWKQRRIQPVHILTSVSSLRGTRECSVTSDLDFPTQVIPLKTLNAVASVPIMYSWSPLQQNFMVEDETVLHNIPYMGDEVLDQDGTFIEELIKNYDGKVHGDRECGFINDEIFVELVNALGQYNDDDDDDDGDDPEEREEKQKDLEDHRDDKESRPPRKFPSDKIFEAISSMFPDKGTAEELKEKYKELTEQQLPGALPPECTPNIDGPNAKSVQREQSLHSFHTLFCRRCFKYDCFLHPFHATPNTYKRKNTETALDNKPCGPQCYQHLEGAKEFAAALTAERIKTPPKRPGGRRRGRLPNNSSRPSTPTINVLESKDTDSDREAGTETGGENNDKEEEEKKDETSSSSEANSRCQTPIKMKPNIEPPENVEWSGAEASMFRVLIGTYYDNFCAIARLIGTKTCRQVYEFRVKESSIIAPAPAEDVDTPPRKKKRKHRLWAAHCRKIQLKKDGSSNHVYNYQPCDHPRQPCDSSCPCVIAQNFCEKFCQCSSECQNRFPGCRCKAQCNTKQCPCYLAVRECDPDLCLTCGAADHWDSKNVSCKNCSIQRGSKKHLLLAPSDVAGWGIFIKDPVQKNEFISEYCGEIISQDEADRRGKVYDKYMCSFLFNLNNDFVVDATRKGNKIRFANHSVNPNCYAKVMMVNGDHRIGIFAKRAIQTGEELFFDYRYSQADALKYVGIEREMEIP

Structure (SMILES) | IC50 (A549) | IC50 (HCT-116) | IC50 (HepG2) | inhibition [1]
Cc1cc(C)c(CNc2nc(-c3ccc(CN4CCOCC4)cc3)nc3[nH]cnc23)c(=O)[nH]1 | > 10 µM | > 10 µM | > 10 µM | 
CCC(CC)n1cnc2c(NCc3c(C)cc(C)[nH]c3=O)nc(-c3ccc(N4CCN(C(=O)OC(C)(C)C)CC4)nc3)nc21 | 8.21 µM | 0.88 µM | 0.52 µM | 
Cc1cc(C)c(CNc2nc(-c3ccccc3F)nc3[nH]cnc23)c(=O)[nH]1 | > 10 µM | 6.91 µM | 6.89 µM | 
Cc1cc(C)c(CNc2nc(-c3ccc(OC(F)(F)F)cc3)nc3c2ncn3C2CCCCO2)c(=O)[nH]1 (stereo not drawn) | 9.46 µM | 5.83 µM | 5.22 µM | 
CCC(CC)n1cnc2c(NCc3c(C)cc(C)[nH]c3=O)nc(Cl)nc21 | 1.51 µM | 1.33 µM | 0.2 µM | 0.5%
Cc1cc(C)c(CNc2nc(-c3ccc(N4CCOCC4)cc3)nc3c2ncn3C(C)C)c(=O)[nH]1 | 4.3 µM | 1.03 µM | 1.11 µM | 
Cc1cc(C)c(CNc2nc(-c3ccc(N4CCNCC4)nc3)nc3c2ncn3C(C)C)c(=O)[nH]1 | > 10 µM | 1.19 µM | 2.88 µM | -4%
Cc1cc(C)c(CNc2nc(-c3ccc(N4CCN(C)CC4)cc3)nc3c2ncn3C2CCCC2)c(=O)[nH]1 | 6.21 µM | 1.37 µM | 2.59 µM | 
Cc1cc(C)c(CNc2nc(-c3ccc(N4CCN(C)CC4)cc3)nc3[nH]cnc23)c(=O)[nH]1 | > 10 µM | > 10 µM | 9.83 µM | 
CCC(CC)n1cnc2c(NCc3c(C)cc(C)[nH]c3=O)nc(-c3ccc(CN4CCOCC4)cc3)nc21 | 6.13 µM | 2.99 µM | 1.82 µM | 
Cc1cc(C)c(CNc2nc(-c3cccc(N4CCOCC4)c3)nc3c2ncn3C(C)C)c(=O)[nH]1 | > 10 µM | 7.42 µM | > 10 µM | 
Cc1cc(C)c(CNc2nc(-c3ccc(OC(F)(F)F)cc3)nc3c2ncn3C2CCCC2)c(=O)[nH]1 | > 10 µM | 7.55 µM | 6.21 µM | 
CCC(CC)n1cnc2c(NCc3c(C)cc(C)[nH]c3=O)nc(-c3cccc(N4CCOCC4)c3)nc21 | > 10 µM | > 10 µM | 2.22 µM | 
Cc1cc(C)c(CNc2nc(-c3ccc(N4CCNCC4)nc3)nc3c2ncn3C2CCCC2)c(=O)[nH]1 | > 10 µM | 0.85 µM | 1.71 µM | 
Cc1cc(C)c(CNc2nc(-c3ccc(N4CCN(C(=O)OC(C)(C)C)CC4)nc3)nc3c2ncn3C(C)C)c(=O)[nH]1 | 0.49 µM | 4.14 µM | > 10 µM | 
Cc1cc(C)c(CNc2nc(-c3ccc(N4CCN(C)CC4)cc3)nc3c2ncn3C(C)C)c(=O)[nH]1 | 4.72 µM | 7.93 µM | 5.81 µM | 
Cc1cc(C)c(CNc2nc(-c3ccc(N4CCN(C(=O)OC(C)(C)C)CC4)nc3)nc3c2ncn3C2CCCC2)c(=O)[nH]1 | > 10 µM | 1.01 µM | 1.62 µM | 
CCC(CC)n1cnc2c(NCc3c(C)cc(C)[nH]c3=O)nc(-c3ccc(N4CCN(C)CC4)nc3)nc21 | > 10 µM | 0.65 µM | 0.82 µM | 
Cc1cc(C)c(CNc2nc(-c3ccc(N4CCN(C)CC4)nc3)nc3c2ncn3C2CCCC2)c(=O)[nH]1 | 5.17 µM | > 10 µM | 7.63 µM | 
Cc1cc(C)c(CNc2nc(Cl)nc3c2ncn3C(C)C)c(=O)[nH]1 | 1.13 µM | 1.86 µM | 0.15 µM | 
Cc1cc(C)c(CNc2ncnc3c2ncn3C2CCCC2)c(=O)[nH]1 | > 10 µM | 1.05 µM |  | 
COc1ccc(CNc2nc(NCc3ccc(OC)cc3)c3ncn(C(C)C)c3n2)cc1 [MYOSEVERIN] | > 10 µM | 7.82 µM | 3.06 µM | 
Cc1cc(C)c(CNc2nc(-c3ccc(OC(F)(F)F)cc3)nc3c2ncn3C(C)C)c(=O)[nH]1 | 9.31 µM | 0.55 µM | 2.47 µM | 
Cc1cc(C)c(CNc2nc(Cl)nc3c2ncn3C2CCCCO2)c(=O)[nH]1 (stereo not drawn) | 1.93 µM | 2.71 µM | 0.41 µM | 

— ChEMBL document CHEMBL4311992, “Discovery of 3-(((9H-purin-6-yl)amino)methyl)-4,6-dimethylpyridin-2(1H)-one derivatives as novel tubulin polymerization inhibitors for treatment of cancer” (Eur J Med Chem, 2019)
